Measurements taken from patent US20260102501A1, “ANTI-CANCER NUCLEAR HORMONE RECEPTOR-TARGETING COMPOUNDS” (Nuvation Bio Inc., priority 2022, published 2026).
Where two headings read alike, the source gives them in different places.

Assays:
[1] = biological target: T1, AR (cytosol from LnCaP cells) (Homo sapiens, UniProt P10275, T878A); assay: AR binding assay (3H-R1881 displacement)
T1 sequence (P10275 1-920 T878A): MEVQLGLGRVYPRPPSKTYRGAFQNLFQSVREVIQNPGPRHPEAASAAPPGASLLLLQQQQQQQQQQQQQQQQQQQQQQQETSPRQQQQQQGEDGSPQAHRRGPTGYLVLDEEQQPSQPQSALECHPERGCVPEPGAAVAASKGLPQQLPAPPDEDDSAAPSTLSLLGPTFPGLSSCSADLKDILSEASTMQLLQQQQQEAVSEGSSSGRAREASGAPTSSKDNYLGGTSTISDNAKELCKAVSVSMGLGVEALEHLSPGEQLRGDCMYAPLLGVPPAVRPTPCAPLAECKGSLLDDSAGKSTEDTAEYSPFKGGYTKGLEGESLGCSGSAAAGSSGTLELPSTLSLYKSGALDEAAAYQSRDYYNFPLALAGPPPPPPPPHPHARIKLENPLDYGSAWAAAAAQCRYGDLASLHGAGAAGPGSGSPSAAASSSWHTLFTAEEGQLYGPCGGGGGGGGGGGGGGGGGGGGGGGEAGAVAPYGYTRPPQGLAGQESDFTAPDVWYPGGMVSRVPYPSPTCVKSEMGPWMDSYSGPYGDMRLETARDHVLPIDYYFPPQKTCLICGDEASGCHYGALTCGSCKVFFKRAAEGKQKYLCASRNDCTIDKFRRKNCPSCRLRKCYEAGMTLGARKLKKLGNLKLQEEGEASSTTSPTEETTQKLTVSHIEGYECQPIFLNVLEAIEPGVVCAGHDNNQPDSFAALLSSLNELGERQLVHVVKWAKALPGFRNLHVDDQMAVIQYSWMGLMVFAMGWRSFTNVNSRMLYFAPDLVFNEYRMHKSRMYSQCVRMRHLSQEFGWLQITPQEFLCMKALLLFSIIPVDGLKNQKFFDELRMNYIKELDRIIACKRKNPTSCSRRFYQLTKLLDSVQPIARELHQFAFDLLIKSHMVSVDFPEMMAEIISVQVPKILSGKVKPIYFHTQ
Experimental: The plate was then centrifuged at 3000 rpm for 30 minutes at 4° C.

LNCap cells = assay: Cell viability assay (CellTiterGlo); format: cell-based; details: Homo sapiens, 144 h
22Rv1 cells = assay: Cell viability assay (CellTiterGlo); details: Homo sapiens, 22Rv1, 144 h, read-out: 22RV1 (IC50, nM)
Experimental: Cell viability assay: LNCap, 22Rv1, MCF7, MDAMB361, T47D, and IEC6 cells were seeded at a density of 500-2000 cells/well in 96 well plates, and a ‘T0’ (timepoint 0) was included along with the assay plate. The plates were then incubated at 37° C., 5% CO2 in a cell culture incubator overnight. On the next day, the ‘T0’ plate was assayed using CellTiterGlo (Promega, Inc) according to the manufacturer's instructions. The appropriate compounds were diluted in DMSO and added to the assay plate (final DMSO concentration of 0.1-0.2%) on the next day. The assay plates were incubated for 6 days at 37° C., 5% CO2. After the incubation period, the plates were assayed using CellTiterGlo (Promega, Inc) according to the manufacturer's instructions and luminescence was read on the En Vision plate reader. […] GraphPadPrism was used to analyze the data and determine GI50/IC50 values.

IEC6 cells = assay: Cell viability assay (CellTiterGlo); details: Rattus norvegicus, IEC-6, 144 h, read-out: IEC-6 (IC50, nM)
[2] = 6 days incubation, CellTiterGlo, read-out: LNCap (IC50)

SMILES	IC50 [1] [nM]	IC50 (LNCap cells; read-out: LNCap (IC50, nM)) [nM]	IC50 (22Rv1 cells) [nM]	IC50 (LNCap cells; [2]) [nM]	IC50 (IEC6 cells) [nM]
CC[C@@]1(O)C(=O)OCc2c1cc1n(c2=O)Cc2cc3c(CN4CCN(C(=O)C5CCN(c6ccc(C(=O)N[C@H]7CC[C@H](Oc8ccc(C#N)c(Cl)c8)CC7)nn6)CC5)CC4)c(OC(=O)N(C)c4ccccc4)ccc3nc2-1 [Compound 2, (S)-10-((4-(1-(6-(((1r,4r)-4-(3-Chloro-4-cyanophenoxy)cyclohexyl)carbamoyl)pyridazin-3-yl)piperidine-4-carbonyl)piperazin-1-yl)methyl)-4-ethyl-4-hydroxy-3,14-dioxo-3,4,12,14-tetrahydro-1H-pyrano[3′,4′:6,7]indolizino[1,2-b]quinolin-9-yl Methyl(phenyl)carbamate]	101 to 1000	> 1000	> 1000	–	–
CC[C@@]1(O)C(=O)OCc2c1cc1n(c2=O)Cc2cc3c(CN(C)C(=O)C(C)(C)N(C)C(=O)CO[C@H]4CC[C@H]5[C@@H]6CC[C@H]7CC(=O)CC[C@]7(C)[C@H]6CC[C@]45C)c(O)ccc3nc2-1 [Compound 4, 2-(2-(((5S,8R,9S,10S,13S,14S,17S)-10,13-Dimethyl-3-oxohexadecahydro-1H-cyclopenta[a]phenanthren-17-yl)oxy)-N-methylacetamido)-N—(((S)-4-ethyl-4,9-dihydroxy-3,14-dioxo-3,4,12,14-tetrahydro-1H-pyrano[3′,4′:6,7]indolizino[1,2-b]quinolin-10-yl)methyl)-N,2-dimethylpropanamide]	–	–	101 to 1000	101 to 1000	–
CC[C@@]1(O)C(=O)OCc2c1cc1n(c2=O)Cc2cc3c(CN(C)C)c(OC(=O)N4CCN(C(=O)CCCCCNC(=O)c5ccc(N6C(=S)N(c7ccc(C#N)c(C(F)(F)F)c7)C(=O)C6(C)C)cc5F)CC4)ccc3nc2-1 [Compound 9, (S)-10-((Dimethylamino)methyl)-4-ethyl-4-hydroxy-3,14-dioxo-3,4,12,14-tetrahydro-1H-pyrano[3′,4′:6,7]indolizino[1,2-b]quinolin-9-yl 4-(6-(4-(3-(4-cyano-3-(trifluoromethyl)phenyl)-5,5-dimethyl-4-oxo-2-thioxoimidazolidin-1-yl)-2-fluorobenzamido)hexanoyl)piperazine-1-carboxylate]	> 1000	10 to 100	10 to 100	–	> 1000
CC[C@@]1(O)C(=O)OCc2c1cc1n(c2=O)Cc2cc3c(CN4CCN(CC5CCN(c6ccc(C(=O)N[C@H]7CC[C@H](N(C)c8ccc(C#N)c(Cl)c8)CC7)nn6)CC5)CC4)c(O)ccc3nc2-1 [Compound 28, N-((1r,4r)-4-((3-Chloro-4-cyanophenyl)(methyl)amino)cyclohexyl)-6-(4-((4-(((S)-4-ethyl-4,9-dihydroxy-3,14-dioxo-3,4,12,14-tetrahydro-1H-pyrano[3′,4′:6,7]indolizino[1,2-b]quinolin-10-yl)methyl)piperazin-1-yl)methyl)piperidin-1-yl)pyridazine-3-carboxamide]	10 to 100	–	10 to 100	10 to 100	–
CC[C@@]1(O)C(=O)OCc2c1cc1n(c2=O)Cc2cc3c(CN(C)C)c(OC(=O)N4CCN(CC5CCN(c6ccc(N7C(=S)N(c8ccc(C#N)c(Cl)c8)C(=O)C7(C)C)cc6)CC5)CC4)ccc3nc2-1 [Compound 58, (S)-10-((dimethylamino)methyl)-4-ethyl-4-hydroxy-3,14-dioxo-3,4,12,14-tetrahydro-1H-pyrano[3′,4′:6,7]indolizino[1,2-b]quinolin-9-yl 4-((1-(4-(3-(3-chloro-4-cyanophenyl)-5,5-dimethyl-4-oxo-2-thioxoimidazolidin-1-yl)phenyl)piperidin-4-yl)methyl)piperazine-1-carboxylate]	10 to 100	101 to 1000	10 to 100	–	101 to 1000
CC[C@@]1(O)C(=O)OCc2c1cc1n(c2=O)Cc2cc3c(CN4CCN(C(=O)C5CCN(c6ccc(C(=O)N[C@H]7CC[C@H](Oc8ccc(C#N)c(Cl)c8)CC7)nn6)CC5)CC4)c(OC(=O)N4CCN(C)CC4)ccc3nc2-1 [Compound No. 10, (S)-10-((4-(1-(6-(((1r,4r)-4-(3-Chloro-4-cyanophenoxy)cyclohexyl)carbamoyl)pyridazin-3-yl)piperidine-4-carbonyl)piperazin-1-yl)methyl)-4-ethyl-4-hydroxy-3,14-dioxo-3,4,12,14-tetrahydro-1H-pyrano[3′,4′:6,7]indolizino[1,2-b]quinolin-9-yl 4-Methylpiperazine-1-carboxylate]	10 to 100	> 1000	> 1000	–	> 1000
CC[C@@]1(O)C(=O)OCc2c1cc1n(c2=O)Cc2cc3c(CN(C)C)c(OC(=O)N4CCN(C(=O)C5CCN(c6ccc(C(=O)N[C@H]7CC[C@H](N(C)c8ccc(C#N)c(Cl)c8)CC7)nn6)CC5)CC4)ccc3nc2-1 [Compound No. 11, (S)-10-((Dimethylamino)methyl)-4-ethyl-4-hydroxy-3,14-dioxo-3,4,12,14-tetrahydro-1H-pyrano[3′,4′:6,7]indolizino[1,2-b]quinolin-9-yl 4-(1-(6-(((1r,4r)-4-((3-chloro-4-cyanophenyl)(methyl)amino)-cyclohexyl)carbamoyl)pyridazin-3-yl)piperidine-4-carbonyl)piperazine-1-carboxylate]	< 10	10 to 100	10 to 100	–	101 to 1000
CC[C@@]1(O)C(=O)OCc2c1cc1n(c2=O)Cc2cc3c(CN4CCN(C(=O)C5CCN(c6ccc(C(=O)N[C@H]7CC[C@H](Oc8ccc(C#N)c(Cl)c8)CC7)nn6)CC5)CC4)c(OC(=O)N4CCC(N5CCCCC5)CC4)ccc3nc2-1 [Compound No. 13, (S)-10-((4-(1-(6-(((1r,4r)-4-(3-Chloro-4-cyanophenoxy)cyclohexyl)carbamoyl)pyridazin-3-yl)piperidine-4-carbonyl)piperazin-1-yl)methyl)-4-ethyl-4-hydroxy-3,14-dioxo-3,4,12,14-tetrahydro-1H-pyrano[3′,4′:6,7]indolizino[1,2-b]quinolin-9-yl [1,4′-bipiperidine]-1′-carboxylate]	10 to 100	> 1000	> 1000	–	> 1000
CC[C@@]1(O)C(=O)OCc2c1cc1n(c2=O)Cc2cc3c(CN4CCN(C(=O)C5CCN(c6ccc(C(=O)N[C@H]7CC[C@H](N(C)c8ccc(C#N)c(Cl)c8)CC7)nn6)CC5)CC4)c(O)ccc3nc2-1 [Compound No. 15, N-((1r,4r)-4-((3-Chloro-4-cyanophenyl)(methyl)amino)cyclohexyl)-6-(4-(4-(((S)-4-ethyl-4,9-dihydroxy-3,14-dioxo-3,4,12,14-tetrahydro-1H-pyrano[3′,4′:6,7]indolizino[1,2-b]quinolin-10-yl)methyl)-piperazine-1-carbonyl)piperidin-1-yl)pyridazine-3-carboxamide]	< 10	–	10 to 100	10 to 100	> 1000
CC[C@@]1(O)C(=O)OCc2c1cc1n(c2=O)Cc2cc3c(CN(C)C)c(OCC4CCN(C(=O)C5CCN(c6ccc(C(=O)N[C@H]7CC[C@H](Oc8ccc(C#N)c(Cl)c8)CC7)nn6)CC5)CC4)ccc3nc2-1 [Compound No. 16, N-((1r,4r)-4-(3-Chloro-4-cyanophenoxy)cyclohexyl)-6-(4-(4-((((S)-10-((dimethylamino)-methyl)-4-ethyl-4-hydroxy-3,14-dioxo-3,4,12,14-tetrahydro-1H-pyrano[3′,4′:6,7]indolizino[1,2-b]quinolin-9-yl)oxy)methyl)piperidine-1-carbonyl)piperidin-1-yl)pyridazine-3-carboxamide]	10 to 100	–	101 to 1000	101 to 1000	> 1000
CC[C@@]1(O)C(=O)OCc2c1cc1n(c2=O)Cc2cc3c(CN(C)C)c(OC(=O)N4C[C@H](C)N(C(=O)C5CCN(c6ccc(C(=O)N[C@H]7CC[C@H](N(C)c8ccc(C#N)c(Cl)c8)CC7)nn6)CC5)C[C@H]4C)ccc3nc2-1 [Compound No. 17, (S)-10-((Dimethylamino)methyl)-4-ethyl-4-hydroxy-3,14-dioxo-3,4,12,14-tetrahydro-1H-pyrano[3′,4′:6,7]indolizino[1,2-b]quinolin-9-yl (2R,5S)-4-(1-(6-(((1r,4r)-4-((3-chloro-4-cyanophenyl)(methyl)-amino)cyclohexyl)carbamoyl)pyridazin-3-yl)piperidine-4-carbonyl)-2,5-dimethylpiperazine-1-carboxylate]	10 to 100	101 to 1000	101 to 1000	–	> 1000
